# Test results from ChEMBL document CHEMBL4033683, “Dual functional small molecule fluorescent probes for image-guided estrogen receptor-specific targeting coupled potent antiproliferative potency for breast cancer therapy” (Bioorg Med Chem, 2017).
# Active and inactive are the calls of the source. The calls are words filed in the database; no cut-off is given here.
# Tests used:
# [1] = Drug uptake in human MDA-MB-231 cells at 10 uM after 2 hrs by confocal laser scanning microscopic method; assay type: ADME, cell-based; conditions: mda-mb-231, 2 h
# Homo sapiens [2] = organism: Homo sapiens; assay: Binding affinity to ER in human MCF7 cells at 1 uM up to 4 mins by real time imaging analysis; assay type: cell-based
# Estrogen receptor beta [3] = target: T1, Estrogen receptor beta (Homo sapiens, UniProt Q92731); assay: Agonist activity at ERbeta (unknown origin) expressed in HEK293T cells after 24 hrs by luciferase reporter gene assay; assay type: cell-based
# [4] = target: T2, Estrogen receptor (Homo sapiens) (UniProt P03372); assay: Agonist activity at ERalpha (unknown origin) expressed in HEK293T cells after 24 hrs by luciferase reporter gene assay; assay type: cell-based
# T2 sequence (whole entry): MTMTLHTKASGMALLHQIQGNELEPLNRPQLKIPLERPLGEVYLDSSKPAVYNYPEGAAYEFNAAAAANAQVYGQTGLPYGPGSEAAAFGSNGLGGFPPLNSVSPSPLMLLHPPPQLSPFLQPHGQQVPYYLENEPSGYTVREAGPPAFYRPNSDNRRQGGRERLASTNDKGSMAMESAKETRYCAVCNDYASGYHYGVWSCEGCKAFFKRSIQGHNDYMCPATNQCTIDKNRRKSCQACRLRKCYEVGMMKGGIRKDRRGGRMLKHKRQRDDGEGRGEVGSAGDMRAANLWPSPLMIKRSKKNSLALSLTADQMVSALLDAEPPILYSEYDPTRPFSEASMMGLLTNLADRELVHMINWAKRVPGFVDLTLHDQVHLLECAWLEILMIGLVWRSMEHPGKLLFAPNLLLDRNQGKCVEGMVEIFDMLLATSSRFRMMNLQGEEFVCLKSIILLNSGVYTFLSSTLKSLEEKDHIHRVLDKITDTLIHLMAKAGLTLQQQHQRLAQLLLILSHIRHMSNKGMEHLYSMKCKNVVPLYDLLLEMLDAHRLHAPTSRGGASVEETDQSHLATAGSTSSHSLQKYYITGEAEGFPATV
# Estrogen receptor beta [5] = target: T1, Estrogen receptor beta; assay: Agonist activity at ERbeta (unknown origin) expressed in HEK293T cells after 24 hrs by luciferase reporter gene assay relative to estradiol; assay type: cell-based
# MCF7 = assay: cells; conditions: Homo sapiens, MCF7, 72 h
# [6] = target: T2, Estrogen receptor (Homo sapiens); assay: Antagonist activity at ERalpha (unknown origin) expressed in HEK293T cells assessed as inhibition of estradiol-induced response after 24 hrs by luciferase reporter gene assay relative to estradiol; assay type: cell-based
# MDA-MB-453 = assay: Antiproliferative activity against human MDA-MB-453 cells after 72 hrs by MTT assay; assay type: functional, cell-based; conditions: MDA-MB-453, 72 h
# MDA-MB-231 = assay: Antiproliferative activity against human MDA-MB-231 cells after 72 hrs by MTT assay; assay type: functional, cell-based; conditions: MDA-MB-231, 72 h
# Estrogen receptor = target: T3, Estrogen receptor (Homo sapiens, UniProt P03372); assay: Antagonist activity at ERalpha (unknown origin) expressed in HEK293T cells assessed as inhibition of estradiol-induced response after 24 hrs by luciferase reporter gene assay; assay type: cell-based
# T3 sequence (P03372 whole entry): T2 sequence (whole entry)
# [7] = target: T2, Estrogen receptor (Homo sapiens); assay: Binding affinity to ERalpha (unknown origin) at 1 uM in presence of estradiol by fluorescence assay
# Homo sapiens [8] = organism: Homo sapiens; assay: Binding affinity to ER in human MCF7 cells at 10 uM preincubated for 2 hrs followed by estradiol addition measured after 10 mins by confocal laser scanning microscopic method; assay type: cell-based
# Homo sapiens [9] = organism: Homo sapiens; assay: Binding affinity to ER in human MCF7 cells assessed as increase in fluorescence in nucleus at 10 uM after 2 hrs by confocal laser scanning microscopic method; assay type: cell-based
# [10] = target: T2, Estrogen receptor (Homo sapiens); assay: Binding affinity to ERalpha (unknown origin) at 1 uM by fluorescence assay
# Homo sapiens [11] = organism: Homo sapiens; assay: Binding affinity to ER in human MCF7 cells assessed as increase in fluorescence in cytosol at 10 uM after 2 hrs by confocal laser scanning microscopic method; assay type: cell-based
# Estrogen receptor beta [12] = target: T1, Estrogen receptor beta; assay: Binding affinity to ERbeta (unknown origin) at 1 uM in presence of estradiol by fluorescence assay
# Estrogen receptor beta [13] = target: T1, Estrogen receptor beta; assay: Binding affinity to ERbeta (unknown origin) at 1 uM by fluorescence assay
# Homo sapiens [14] = organism: Homo sapiens; assay: Binding affinity to ER in human MCF7 cells assessed as increase in fluorescence in nucleus at 1 uM up to 4 mins by real time imaging analysis; assay type: cell-based
# [15] = Drug uptake in cytosol of human MCF7 cells at 1 uM up to 4 mins by real time fluorescence imaging analysis; assay type: ADME
# Homo sapiens [16] = organism: Homo sapiens; assay: Binding affinity to ER in human MCF7 cells assessed as increase in fluorescence in cytosol at 1 uM up to 4 mins by real time imaging analysis; assay type: cell-based
# [17] = Drug uptake in nucleus of human MCF7 cells at 1 uM up to 4 mins by real time fluorescence imaging analysis; assay type: ADME
# T1 sequence (Q92731 whole entry): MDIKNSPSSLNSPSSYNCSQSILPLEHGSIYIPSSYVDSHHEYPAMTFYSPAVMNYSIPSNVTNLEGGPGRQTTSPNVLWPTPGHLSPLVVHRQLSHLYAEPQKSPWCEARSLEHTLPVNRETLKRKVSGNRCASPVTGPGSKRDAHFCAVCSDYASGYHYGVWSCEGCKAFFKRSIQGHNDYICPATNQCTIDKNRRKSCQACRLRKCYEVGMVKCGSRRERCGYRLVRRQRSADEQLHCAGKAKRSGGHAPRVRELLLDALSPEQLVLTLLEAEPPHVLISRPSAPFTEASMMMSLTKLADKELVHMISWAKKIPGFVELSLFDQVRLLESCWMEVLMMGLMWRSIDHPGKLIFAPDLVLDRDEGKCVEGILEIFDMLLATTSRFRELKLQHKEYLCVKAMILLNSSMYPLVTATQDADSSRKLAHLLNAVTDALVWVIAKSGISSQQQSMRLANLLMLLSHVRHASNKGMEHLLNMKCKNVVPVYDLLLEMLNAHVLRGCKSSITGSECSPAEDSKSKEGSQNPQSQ
EC50 (Estrogen receptor beta [3]),Activity [4],Efficacy (Estrogen receptor beta [5]),IC50 (MCF7),Efficacy [6],IC50 (MDA-MB-453),IC50 (MDA-MB-231),IC50 (Estrogen receptor),SMILES,also measured
–,–,–,–,–,–,–,–,C[C@]12CC[C@@H]3c4ccc(O)cc4CC[C@H]3[C@@H]1CC[C@@]2(O)C#Cc1ccc(CNC(=O)c2ccc(-c3c4ccc(=O)cc-4oc4cc(O)ccc34)c(C(=O)O)c2)cc1,Drug uptake [1]: Active; Activity (Homo sapiens [2]): inactive
0.542 µM,inactive,138%,> 100 µM,101%,> 100 µM,> 100 µM,–,O=c1oc2cc(O)ccc2cc1-c1ccc(O)cc1,–
0.011 µM,inactive,72.1%,> 100 µM,65.3%,55.3 µM,> 100 µM,0.112 µM,Cc1cc(O)ccc1-c1c(C)c2ccc(O)cc2oc1=O,–
0.012 µM,–,33.4%,49 µM,15.2%,29.1 µM,59.8 µM,0.222 µM,O=c1oc2cc(O)ccc2c(-c2ccc(O)cc2)c1-c1ccc(O)cc1,–
0.343 µM,inactive,68.2%,49.3 µM,120%,37.2 µM,> 100 µM,–,CCc1c(-c2ccc(O)cc2Cl)c(=O)oc2cc(O)ccc12,Drug uptake [1]: Not Active; Activity [7]: inactive; Activity (Homo sapiens [8]): inactive; Activity (Homo sapiens [9]): Active; Activity [10]: Active; Activity (Homo sapiens [11]): Active; Activity (Estrogen receptor beta [12]): inactive; Activity (Estrogen receptor beta [13]): Active
–,inactive,-11.2%,40.1 µM,57.8%,31.7 µM,> 100 µM,0.219 µM,O=c1oc2cc(O)ccc2c(-c2ccc(O)c(F)c2)c1-c1ccc(O)c(F)c1,–
–,inactive,–,50 µM,–,39.8 µM,48.6 µM,–,CCc1c(-c2ccc(O)c(F)c2)c(=O)oc2cc(O)ccc12,–
–,inactive,-6.9%,16.1 µM,26.4%,8.03 µM,> 100 µM,0.012 µM,CCc1c(-c2ccc(O)cc2F)c(=O)oc2cc(O)ccc12,Drug uptake [1]: Not Active; Activity [7]: inactive; Activity (Homo sapiens [14]): Active; Drug uptake [15]: Not Active; Activity (Homo sapiens [8]): inactive; Activity (Homo sapiens [16]): Active; Activity (Homo sapiens [2]): Active; Activity (Homo sapiens [9]): Active; Drug uptake [17]: Not Active; Activity [10]: Active; Activity (Homo sapiens [11]): Active; Activity (Estrogen receptor beta [12]): inactive; Activity (Estrogen receptor beta [13]): Active
0.894 µM,inactive,12.9%,21.6 µM,84.6%,26.7 µM,46.1 µM,1.24 µM,Cc1c(-c2ccc(O)cc2Cl)c(=O)oc2cc(O)ccc12,–
0.207 µM,inactive,66.7%,> 100 µM,124%,> 100 µM,> 100 µM,–,O=c1oc2cc(O)ccc2cc1-c1ccc(O)c(F)c1,–

SMILES,EC50 (Estrogen receptor beta [3]),Activity [4],Efficacy (Estrogen receptor beta [5]),IC50 (MCF7),Efficacy [6],IC50 (MDA-MB-453),IC50 (MDA-MB-231),IC50 (Estrogen receptor),also measured
CCC(=C(c1ccc(O)cc1)c1ccc(OCCN(C)C)cc1)c1ccccc1,–,–,–,–,–,10.4 µM,20.1 µM,–,–
